Laboratory results published in patent US10222381B2, “Water-soluble peptide fluorescence material” (NATIONAL CHIAO TUNG UNIVERSITY, priority 2015, dated 2019).
Residues, ends and D or L forms follow the SMILES beside them. *: point of attachment. X1 = O=C1c2cccc3c(N4CCCCC4)ccc(c23)C(=O)C1CC(=O)*

Tests used:
[1] = Survival rate of WSI cells; type: cell-based; conditions: human
From the text: (§1) The above experimental result is much better than a standard of IC50 (50% inhibitory concentration). IC50 represents a concentration of a drug that is required for 50% survival rate of the cells, which means that a certain concentration of a drug is used to detect a cell mortality rate of 50%, and the certain concentration is also referred as 50% inhibitory concentration. Described in different ways, when a ratio of death cells to original cells is 50%, the corresponding concentration is 50% inhibitory concentration. The water-soluble peptide fluorescence material of the present disclosure has low toxicity and excellent compatibility to PC-3 cells, so as to avoid mass mortality of the cells. In addition, HeLa, MCF-7, CTXTAN2, PC12, WSI, 3T3L1 cells are also tested. The water-soluble peptide fluorescence material has excellent compatibility with these cells since the survival rate of these cell are all over 50%.

[2] = Survival rate of HeLa cells; type: cell-based; conditions: human
From the text: as §1

[3] = Fluorescence intensity and emission wavelength at different pH values; type: physicochemical
From the text: In Experimental Examples 210, 220, 230, 240, 250, 260, 270 and 280, the above water-soluble peptide fluorescence material is respectively placed in environments having a pH value of 10, 9, 8, 7, 6, 5, 4 and 3 for testing. In Experimental Examples 210 to 230, the water-soluble peptide fluorescence material is respectively placed in environments having the pH value of 10, 9 and 8.
Continuing in FIG. 5, which illustrates a fluorescence intensity and an emission wavelength of the water-soluble peptide fluorescence material of formula (III-10) at different pH values. In Experimental Examples 510, 520, 530, 540, 550, 560, 570 and 580, the water-soluble peptide fluorescence material of formula (III-10) is respectively placed in environments having a pH value of 10, 9, 8, 7, 6, 5, 4 and 3 for testing. In Experimental Examples 510 to 560, the water-soluble peptide fluorescence material is placed in environments having the pH value of 10 to 5, and two emission peaks are shown in FIG. 5. […] Then, the pH value is further decrease to 4 (Experimental Example 570) and 3 (Experimental Example 580), and only the emission peak at about 400 nm is remained, so the observed fluorescence has a color of purple in Experimental Examples 570 and 580. Therefore, the water-soluble peptide fluorescence material of formula (III-10) is able to detect and mark locations of acidic cells by change of the color.
Continuing in FIG. 7, which illustrates a fluorescence intensity and an emission wavelength of the water-soluble peptide fluorescence material of formula (III-21) at different pH values. In Experimental Examples 710, 720, 730, 740, 750, 760, 770 and 780, the water-soluble peptide fluorescence material of formula (III-21) is respectively placed in environments having a pH value of 10, 9, 8, 7, 6, 5, 4 and 3 for testing. In Experimental Examples 710 to 750, the water-soluble peptide fluorescence material is placed in environments having the pH value of 10 to 6. […] However, the fluorescence intensity of Experimental Examples 780 is decreased when the pH value is decreased from 4 to 3.
Continuing in FIG. 8, which illustrates a fluorescence intensity and an emission wavelength of the water-soluble peptide fluorescence material of formula (III-22) at different pH values. In Experimental Examples 810, 820, 830, 840, 850, 860, 870 and 880, the water-soluble peptide fluorescence material of formula (III-22) is respectively placed in environments having a pH value of 10, 9, 8, 7, 6, 5, 4 and 3 for testing. In Experimental Examples 810 to 850, the water-soluble peptide fluorescence material is respectively placed in environments having the pH value of 10 to 6. […] In addition, the fluorescence intensity of Experimental Example 860 (pH=5) is 90 times of the fluorescence intensity of Experimental Example 810 […], which represents that the water-soluble peptide fluorescence material has obvious light-emitting interval and easily to identify and detect positions of the acidic cells.
FIG. 10 illustrates a fluorescence intensity and an emission wavelength of the water-soluble peptide fluorescence material of formula (III-23) at different pH values. In Experimental Examples 1010, 1020, 1030, 1040, 1050, 1060, 1070 and 1080, the water-soluble peptide fluorescence material of formula (III-23) is respectively placed in environments having a pH value of 10, 9, 8, 7, 6, 5, 4 and 3 for testing. In Experimental Examples 1010 to 1050, the water-soluble peptide fluorescence material is respectively placed in environments having the pH value of 10 to 6. […] The water-soluble peptide fluorescence material not only provides obvious marker, but also achieves the same effect of the fluorescence at a low concentration, and thereby reduces the costs.
FIG. 11 illustrates a fluorescence intensity and an emission wavelength of the water-soluble peptide fluorescence material of formula (III-27) at different pH values. […]

[4] = system: acidic cells in living cells; experiment: Fluorescence marking of acidic cells in living cells, compared with Lysotracker; type: cell-based; conditions: for fluorescence appearing at the acidic cells: living cells, FIGS. 1A/1B
From the text: The water-soluble peptide fluorescence material is designed to illuminate in acid, neutral or weak base environment, and following embodiments give an example illuminating in acid environment. FIGS. 1A, 1B and 1C are comparative pictures between a water-soluble peptide fluorescence material of the present disclosure and a traditional fluorescence material at the same concentration. The water-soluble peptide fluorescence material has a structure of following formula including a peptide sequence Phe-Asp-Gly-Glu-Ala (SEQ ID NO: 5):
Continuing in FIG. 1B to compare with FIG. 1A, FIG. 1B uses the water-soluble peptide fluorescence material of the present disclosure, which is also used to mark acidic cells in living cells. […] Accordingly, the water-soluble peptide fluorescence material is suitable for a biological fluorescence probe, so as to detect and mark positions of the acidic cells.
At the same concentration, the water-soluble peptide fluorescence material has the greater fluorescence intensity than that of Lysotracker. On this base, a dose of the water-soluble peptide fluorescence material could be decreased to achieve the same fluorescence intensity with the Lysotracker, so as to decrease medical costs and damage to human bodies.

[5] = Survival rate of PC12 cells; type: cell-based; conditions: rat
From the text: as §1

[6] = Survival rate of 3T3L1 cells; type: cell-based; conditions: mouse
From the text: as §1

[7] = Survival rate of PC-3 cells in the fluorescence material; type: cell-based; conditions: human, two days, PC-3 cell
From the text: as §1

[8] = Survival rate of CTXTAN2 cells; type: cell-based; conditions: rat
From the text: as §1

[9] = Survival rate of MCF-7 cells; type: cell-based; conditions: human
From the text: as §1

[10] = Fluorescence in co-solvents of glycerol and methanol (aggregation-induced emission); type: physicochemical
From the text: Continuing in FIG. 6, which illustrates a fluorescence intensity and an emission wavelength of the water-soluble peptide fluorescence material of formula (III-14) in co-solvents having different proportions of glycerol and methanol. In Experimental Example 601, 602, 603, 604, 605, 606, 607, 608, 609 and 610, methanol respectively has 0, 10, 20, 30, 40, 50, 60, 70, 80 and 90% of a total volume of the co-solvent. […] Given the above, the fluorescence intensity of the water-soluble peptide fluorescence material of formula (III-14) is increased corresponding to the increase of the volume ratio of methanol, so the water-soluble peptide fluorescence material of formula (III-14) also has a phenomenon of aggregation-induced emission (AIE) in methanol. In addition, the water-soluble peptide fluorescence material of formula (III-14) has the emission wavelength of about 550 nm, so the observed fluorescence has a color of green.

SMILES: C[C@H](NC(=O)[C@H](CCC(=O)O)NC(=O)CNC(=O)[C@H](CC(=O)O)NC(=O)[C@H](Cc1ccccc1)NC(=O)CC1C(=O)c2cccc3c(N4CCCCC4)ccc(c23)C1=O)C(=O)O (stereo partly drawn) (X1-FDGEA-OH)
- viability [1]: > 50%
- viability [2]: > 50%
- ratio of fluorescence intensity pH 3 to pH 7 ([3]; Experimental Examples 240 and 280): 25.5 times
- fluorescence intensity ([3]; pH 3): about 900 fluorescent units
- fluorescence intensity ([3]; pH 4): about 500 fluorescent units
- color of fluorescence ([3]; pH 5): green
- emission peak ([3]; pH 5): about 550 nm
- fluorescence intensity ([3]; pH 5): about 350 fluorescent units
- fluorescence intensity ([3]; pH 6, compared to pH 10 to 7): no significant change
- fluorescence intensity ([3]; pH 7, neutral environment): slightly increased
- fluorescence intensity ([3]; pH 10, 9 and 8): low fluorescence intensities
- fluorescence appearing at the acidic cells [4]: green fluorescence
- cellular position of fluorescence compared with Lysotracker ([4]; overlapped picture FIG. 1C): substantially the same as Lysotracker
- fluorescence intensity compared with Lysotracker ([4]; same concentration, acidic cells in living cells): greater than that of the red fluorescence of Lysotracker
- viability [5]: > 50%
- viability [6]: > 50%
- viability at 48 h, 500 µM [7]: 80%
- viability [8]: > 50%
- viability [9]: > 50%

SMILES: O=C(CN1C(=O)c2cccc3c(N4CCCCC4)ccc(c23)C1=O)NC(Cc1ccccc1)C(=O)NC(Cc1ccccc1)C(=O)O (stereo not drawn) [III-14]
- fluorescence intensity with increase of the volume ratio of methanol ([10]; aggregation-induced emission): increased
- color of observed fluorescence ([10]; glycerol/methanol co-solvent): green
- emission wavelength ([10]; glycerol/methanol co-solvent): about 550 nm
- fluorescence intensity ([10]; methanol 90% (Experimental Example 610), methanol 0 to 90% tested): largest fluorescence intensity

SMILES: CN(C)CCNC(=O)CCc1ccc2n1[B-](F)(F)[N+]1=C(c3ccc[nH]3)C=CC1=C2 [Lysotracker, reference compound]
- fluorescence appearing at the acidic cells [4]: red fluorescence
